Consider 17 compounds from patent publication US9708336B2, “Metallo-beta-lactamase inhibitors” (priority 2014, dated 2017).

SMILES strings stand for the structures. Where two headings read alike, the source gives them in different places.

One experiment concerns the target NDM-1 (Klebsiella pneumoniae, UniProt C7C422). Description: biochemical. The format is biochemical. To be noted: NDM-1 enzyme, CCF2-FA substrate; read-out: NDM-1 IC50.
Another experiment addresses IMP-1 (Serratia marcescens, UniProt P52699). Description: biochemical. The format is biochemical. To be noted: IMP-1 enzyme, CCF2-FA substrate; read-out: IMP-1 IC50.
A further experiment addresses VIM-1 (Pseudomonas aeruginosa (strain ATCC 15692 / DSM 22644 / CIP 104116 / JCM 14847 / LMG 12228 / 1C / PRS 101 / PAO1), UniProt A0A0F7KYQ8). Nature of the experiment: Enzyme activity: determination of IC50, fluorescence assay with CCF2-FA substrate (VIM-1). The format is biochemical. To be noted: CCF2-FA substrate.
In experiment [1] the test system is Escherichia coli expressing NDM-1 (CLB30016). Nature of the experiment: Antibiotic potentiation activity: synergistic concentration (MITC95) with imipenem, OD600 growth. In kind it is cell-based. To be noted: (CLB30016, NDM-1), 95% growth inhibition. The method in brief: (§1)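 Inoculum: saline suspension of overnight colonies, 1:100 into 1.1× CAMHB. Imipenem 4 μg/ml final (alt. 1 μg/ml) + compound; 35 °C, 22–24 h; absorbance read-out.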

Experiment [2] deals with Klebsiella pneumoniae expressing VIM-1 (IHMA599644). The experiment is described as above. To be noted: Klebsiella pneumoniae IHMA599644 (VIM-1), 95% growth inhibition. The format is cell-based. The method in brief:
as §1

The subject of experiment [3] is Serratia marcescens expressing IMP-1 (CL5741). The experiment is described as above. In kind it is cell-based. To be noted: Serratia marcescens CL5741 (IMP-1), 95% growth inhibition. The procedure, abridged: as §1
The mark [4] stands for this setting: VIM-1 enzyme, read-out: VIM-1 IC50.

Sequence of IMP-1 (P52699 whole entry, looked up): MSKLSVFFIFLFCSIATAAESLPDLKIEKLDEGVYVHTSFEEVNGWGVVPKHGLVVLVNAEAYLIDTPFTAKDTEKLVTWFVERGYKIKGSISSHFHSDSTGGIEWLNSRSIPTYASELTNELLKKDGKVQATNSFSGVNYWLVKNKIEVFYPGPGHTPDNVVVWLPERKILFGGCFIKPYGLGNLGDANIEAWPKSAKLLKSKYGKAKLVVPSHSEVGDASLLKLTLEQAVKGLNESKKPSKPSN
Sequence of NDM-1 (C7C422 whole entry, looked up, species assumed): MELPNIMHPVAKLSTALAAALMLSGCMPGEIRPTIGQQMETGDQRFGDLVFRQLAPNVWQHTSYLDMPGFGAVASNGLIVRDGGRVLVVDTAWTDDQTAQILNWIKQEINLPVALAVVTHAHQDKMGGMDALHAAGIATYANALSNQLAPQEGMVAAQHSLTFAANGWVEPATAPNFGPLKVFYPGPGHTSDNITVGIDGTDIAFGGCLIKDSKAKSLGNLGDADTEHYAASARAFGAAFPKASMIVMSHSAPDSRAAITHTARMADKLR

One may read the IC50 as the midpoint of a concentration-inhibition curve. As for `NS(=O)(=O)c1cccc(-c2cnc3nc(C(F)(F)F)ccn23)c1-c1nnn[nH]1` [Example 650, 2-(1H-tetrazol-5-yl)-3-[7-(trifluoromethyl)imidazo[1,2-a]pyrimidin-3-yl]benzenesulfonamide], the values for the IC50 at NDM-1, on IMP-1 and at VIM-1 (setting [4]) were 22.1 nM, 1260 nM and 46.8 nM, respectively. Moreover, the “Escherichia coli MITC95” value in experiment [1] is 1.563 µM. Besides, the “Klebsiella pneumoniae MITC95” value in experiment [2] turned out to be 50 µM. The “Serratia marcescens MITC95” value in experiment [3] turned out to be 100 µM.

In the case of `NS(=O)(=O)c1cccc(-c2cnc3cnccn23)c1-c1nnn[nH]1` [Example 651, 3-imidazo[1,2-a]pyrazin-3-yl-2-(1H-tetrazol-5-yl)benzenesulfonamide], the IC50 on NDM-1 was 9.85 nM; on IMP-1, 900 nM; against VIM-1 (VIM-1 IC50, VIM-1 enzyme), 40.7 nM. In experiment [1], the “Escherichia coli MITC95” value is 1.172 µM. Further, in experiment [2], the “Klebsiella pneumoniae MITC95” value was 6.25 µM. For the same compound, the “Serratia marcescens MITC95” value in experiment [3] is 37.5 µM.

With `NS(=O)(=O)c1cccc(-c2cnc3ccc(Cl)nn23)c1-c1nnn[nH]1` [Example 652, 3-(6-chloroimidazo[1,2-b]pyridazin-3-yl)-2-(1H-tetrazol-5-yl)benzenesulfonamide], the results for the IC50 at NDM-1, at IMP-1 and at VIM-1 (setting [4]) were 5.37 nM, 167 nM and 27.4 nM, respectively. In addition, the “Escherichia coli MITC95” value in experiment [1] was 1.563 µM. Besides, the “Klebsiella pneumoniae MITC95” value in experiment [2] is 25 µM. Also, in experiment [3], the “Serratia marcescens MITC95” value was 12.5 µM.

As for `CC1(O)CCN(c2ccc(C(F)(F)F)c(S(N)(=O)=O)c2-c2nnn[nH]2)CC1` [Example 653, 3-(4-hydroxy-4-methypiperidin-1-yl)-2-(1H-tetrazol-5-yl)-6-(trifluoromethyl)benzenesulfonamide], the figures for the IC50 on NDM-1, at IMP-1 and at VIM-1 (setting [4]) were 2.82 nM, 4.82 nM and 4.5 nM, respectively. Further, the “Escherichia coli MITC95” value in experiment [1] came to 1.563 µM. In addition, the “Klebsiella pneumoniae MITC95” value in experiment [2] came to 6.25 µM. For the same compound, in experiment [3], the “Serratia marcescens MITC95” value was found to be 0.3906 µM.

As to `CC1(O)CCCN(c2ccc(C(F)(F)F)c(S(N)(=O)=O)c2-c2nnn[nH]2)C1` (stereo not drawn) [Example 654, 3-(3-hydroxy-3-methylpiperidin-1-yl)-2-(1H-tetrazol-5-yl)-6-(trifluoromethyl)benzenesulfonamide], the IC50 on NDM-1 came to 6.85 nM; at IMP-1, 19.6 nM; at VIM-1 (setting [4]), 1.23 nM. For the same compound, the “Escherichia coli MITC95” value in experiment [1] turned out to be 4.688 µM. Further, in experiment [2], the “Klebsiella pneumoniae MITC95” value came to 9.375 µM. For the same compound, in experiment [3], the “Serratia marcescens MITC95” value came to 1.172 µM.

`Cc1n[nH]c2c1CN(c1ccc(C(F)(F)F)c(S(N)(=O)=O)c1-c1nnn[nH]1)CC2` [Example 655]: the results for the IC50 on NDM-1, on IMP-1 and on VIM-1 (setting [4]) were 0.985 nM, 7.8 nM and 0.225 nM, respectively. Also, the “Escherichia coli MITC95” value in experiment [1] stood at 2.344 µM. For the same compound, in experiment [2], the “Klebsiella pneumoniae MITC95” value amounted to 9.375 µM. In experiment [3], the “Serratia marcescens MITC95” value came out at 0.5859 µM.

Turning to `NC(=O)C1CCN(c2ccc(C(F)(F)F)c(S(N)(=O)=O)c2-c2nnn[nH]2)CC1` [Example 656, 1-[3-sulfamoyl-2-(1H-tetrazol-5-yl)-4-(trifluoromethyl)phenyl]piperidine-4-carboxamide], the IC50 turned out to be 1.98 nM at NDM-1, 2.84 nM at IMP-1 and 0.8 nM at VIM-1 (setting [4]). For the same compound, the “Escherichia coli MITC95” value in experiment [1] came to 0.5781 µM. Further, in experiment [2], the “Klebsiella pneumoniae MITC95” value stood at 3.125 µM. In experiment [3], the “Serratia marcescens MITC95” value was determined as 0.125 µM.

`NS(=O)(=O)c1c(C(F)(F)F)ccc(N2CCC[C@H](O)C2)c1-c1nnn[nH]1` [Example 657, 3-[(3S)-3-hydroxypiperidin-1-yl]-2-(1H-tetrazol-5-yl)-6-(trifluoromethyl)benzenesulfonamide]: the IC50 at NDM-1 worked out at 9.66 nM; at IMP-1, 10.2 nM; on VIM-1 (setting [4]), 2.09 nM. Moreover, in experiment [1], the “Escherichia coli MITC95” value came to 2.344 µM. In experiment [2], the “Klebsiella pneumoniae MITC95” value was 4.688 µM. Moreover, in experiment [3], the “Serratia marcescens MITC95” value was 0.7813 µM.

`NS(=O)(=O)c1c(C(F)(F)F)ccc(N2CC3C(CO)C3C2)c1-c1nnn[nH]1` (stereo not drawn) [Example 658, 3-[6-(hydroxymethyl)-3-azabicyclo[3.1.0]hex-3-yl]-2-(1H-tetrazol-5-yl)-6-(trifluoromethyl)benzenesulfonamide]: the IC50 at NDM-1 worked out at 5.12 nM; on IMP-1, 7 nM; at VIM-1 (setting [4]) it was 5.26 nM. In experiment [1], the “Escherichia coli MITC95” value came to 2.344 µM. Besides, the “Klebsiella pneumoniae MITC95” value in experiment [2] worked out at 12.5 µM. In experiment [3], the “Serratia marcescens MITC95” value came to 0.7813 µM.

In the case of `NS(=O)(=O)c1c(C(F)(F)F)ccc(N2CCCC(CO)C2)c1-c1nnn[nH]1` (stereo not drawn) [Example 659, 3-[3-(hydroxymethyl)piperidin-1-yl]-2-(1H-tetrazol-5-yl)-6-(trifluoromethyl)benzenesulfonamide], the results for the IC50 on NDM-1, at IMP-1 and on VIM-1 (setting [4]) were 18.8 nM, 36.3 nM and 6.4 nM, respectively. Further, in experiment [1], the “Escherichia coli MITC95” value turned out to be 15.63 µM. Besides, the “Klebsiella pneumoniae MITC95” value in experiment [2] stood at 25 µM. Also, the “Serratia marcescens MITC95” value in experiment [3] worked out at 2.344 µM.

As for `NS(=O)(=O)c1c(C(F)(F)F)ccc(N2CCCC(CCO)C2)c1-c1nnn[nH]1` (stereo not drawn) [Example 660, 3-[3-(2-hydroxyethyl)piperidin-1-yl]-2-(1H-tetrazol-5-yl)-6-(trifluoromethyl)benzenesulfonamide], the IC50 on NDM-1 amounted to 4.7 nM; on IMP-1 it was 10.4 nM; at VIM-1 (setting [4]) it was 1.31 nM. Besides, the “Escherichia coli MITC95” value in experiment [1] is 2.344 µM. The “Klebsiella pneumoniae MITC95” value in experiment [2] was found to be 6.25 µM. In experiment [3], the “Serratia marcescens MITC95” value amounted to 0.3906 µM.

On to `NS(=O)(=O)c1c(C(F)(F)F)ccc(N2CCC(CCO)CC2)c1-c1nnn[nH]1` [Example 661, 3-[4-(2-hydroxyethyl)piperidin-1-yl]-2-(1H-tetrazol-5-yl)-6-(trifluoromethyl)benzenesulfonamide], for which the IC50 worked out at 1.01 nM on NDM-1, 0.965 nM at IMP-1 and 0.22 nM at VIM-1 (setting [4]). Further, the “Escherichia coli MITC95” value in experiment [1] amounted to 2.703 µM. The “Klebsiella pneumoniae MITC95” value in experiment [2] was determined as 2.75 µM. Besides, in experiment [3], the “Serratia marcescens MITC95” value came to 0.0625 µM.

Regarding `NC(=O)C1CCCN(c2ccc(C(F)(F)F)c(S(N)(=O)=O)c2-c2nnn[nH]2)C1` (stereo not drawn) [Example 662, 1-[3-sulfamoyl-2-(1H-tetrazol-5-yl)-4-(trifluoromethyl)phenyl]piperidine-3-carboxamide], the IC50 is 11.6 nM on NDM-1, 37.1 nM on IMP-1 and 4.58 nM at VIM-1 (setting [4]). The “Escherichia coli MITC95” value in experiment [1] worked out at 6.25 µM. Further, the “Klebsiella pneumoniae MITC95” value in experiment [2] amounted to 12.5 µM. In experiment [3], the “Serratia marcescens MITC95” value was 1.953 µM.

Consider `NS(=O)(=O)c1c(C(F)(F)F)ccc(N2CC[C@H](CO)[C@H](F)C2)c1-c1nnn[nH]1` [Example 663, 3-[(3S,4R)-3-fluoro-4-(hydroxymethyl)piperidin-1-yl]-2-(1H-tetrazol-5-yl)-6-(trifluoromethyl)benzenesulfonamide], for which the IC50 was 2.46 nM at NDM-1, 2.94 nM on IMP-1 and 0.79 nM on VIM-1 (setting [4]). In addition, in experiment [1], the “Escherichia coli MITC95” value came out at 0.8906 µM. The “Klebsiella pneumoniae MITC95” value in experiment [2] came to 3.125 µM. Also, the “Serratia marcescens MITC95” value in experiment [3] stood at 0.125 µM.

For the compound `NS(=O)(=O)c1c(C(F)(F)F)ccc(N2CCN(CCCO)CC2)c1-c1nnn[nH]1` [Example 664, 3-[4-(3-hydroxypropyl)piperazin-1-yl]-2-(1H-tetrazol-5-yl)-6-(trifluoromethyl)benzenesulfonamide], the IC50 at NDM-1 came out at 18.1 nM; at IMP-1, 38.5 nM; on VIM-1 (setting [4]), 52 nM. Besides, the “Escherichia coli MITC95” value in experiment [1] stood at 0.25 µM. Further, the “Klebsiella pneumoniae MITC95” value in experiment [2] turned out to be 6.25 µM. Moreover, in experiment [3], the “Serratia marcescens MITC95” value was found to be 0.418 µM.

Turning to `NS(=O)(=O)c1c(C(F)(F)F)ccc(N2CCC[C@@H](O)C2)c1-c1nnn[nH]1` [Example 665, 3-[(3R)-3-hydroxypiperidin-1-yl]-2-(1H-tetrazol-5-yl)-6-(trifluoromethyl)benzenesulfonamide], the IC50 on NDM-1 stood at 7.48 nM; on IMP-1, 29.8 nM; at VIM-1 (setting [4]), 0.999 nM. In experiment [1], the “Escherichia coli MITC95” value is 1.563 µM. Besides, the “Klebsiella pneumoniae MITC95” value in experiment [2] turned out to be 4.688 µM. Also, the “Serratia marcescens MITC95” value in experiment [3] stood at 1.172 µM.

On to `NS(=O)(=O)c1c(C(F)(F)F)ccc(N2C[C@H](O)C[C@@H](O)C2)c1-c1nnn[nH]1` [Example 666, 3-[(3R,5R)-3,5-dihydroxypiperidin-1-yl]-2-(1H-tetrazol-5-yl)-6-(trifluoromethyl)benzenesulfonamide], for which the IC50 at NDM-1 worked out at 57 nM; on IMP-1 it was 150 nM; at VIM-1 (setting [4]), 14.7 nM. Further, in experiment [1], the “Escherichia coli MITC95” value was found to be 2.344 µM. For the same compound, the “Klebsiella pneumoniae MITC95” value in experiment [2] was found to be 12.5 µM. Moreover, in experiment [3], the “Serratia marcescens MITC95” value worked out at 4.688 µM.
